PMC7217877, “N-AS-triggered SPMs are direct regulators of microglia in a model of Alzheimer’s disease” (Nature Communications, 2020)
Values joined by “and” are separate entries in the source; they are usually repeats but may differ in a detail not shown here. Equal entries are not always repeated.

What was measured:
APP/PS1 mice = assay: fluorescent bead phagocytosis assay in live brain slices (Fig 5b); format: in vivo, mouse; conditions: APP/PS1 + N-AS, individual values
Method: Transgenic mouse lines over-expressing the hAPP695swe (APP) and presenilin-1M146V (PS1) mutations were originated from GlaxoSmithKline (Harlow, UK)[32] and maintained as described previously. We purchased 5×FAD mice from Jackson Labs (Stock number. 34840-JAX). Because APP/PS1 and 5xFAD mice show sex differences in disease progression, we used only male mice. To examine possible therapeutic effect of N-AS and aspirin in APP/PS1 mice, the N-AS (30 mg kg^−1, Sigma-Aldrich, 01912) was injected daily s.c. for 8 weeks to 7-months-old APP/PS1 mice until the age of 9 months, and aspirin (2 mg kg^−1, Sigma-Aldrich, A5376)[33] was administrated orally to 7-months-old APP/PS1 mice for 8 weeks. Also, to confirm possible therapeutic efficacy of N-AS in 5×FAD, the N-AS (30 mg kg^−1, Sigma-Aldrich, 01912) was injected daily s.c. for 4 weeks to 3-months-old 5×FAD mice until the age of 4 months. Block randomization method was used to allocate the animals to experimental groups. To eliminate the bias, we were blinded in experimental progress such as data collection and data analysis. […]
The phagocytic activity of adult microglia in the cortex of live brain slices was analyzed as following protocol. […] The sections were analyzed with a laser-scanning confocal microscope (FV3000; Olympus). MetaMorph software (Molecular Devices) was used to quantification.

neuron = assay: SphK activity in primary cells; format: cell-based, C57BL/6 mice; conditions: Ab 10mM, replicates
Method: We confirmed S1P formation through SphK1 enzymatic activity measurements as previously described[11] using a UPLC (Ultra performance liquid chromatography) system (Waters). […] After pre-incubation, 1 mM ATP (Amresco, 0220) was added the mixture, and it was incubated at 37 °C for 1 h. The […] reactions were stopped by adding 53 μl of ethanol, and centrifuged at 15,493×g for 5 min. Thirty microliter of the supernatant was then transferred to a sampling glass vial and 5 μl was applied onto a UPLC system for analysis. S1P formation was followed as phosphorylation of (7-nitro-2-1,3-benzoxadiazol-4-yl)-d-erythro (NBD)-sphingosine (Avanti Polar Lipids) to NBD-S1P. Quantification was achieved by comparison with NBD-S1P (Avanti Polar Lipids) standards.
To confirm the generation and roles of N-AS in neurons, cells from E18 C57BL/6 mice were prepared as previously described. Cortices were dissected and then dissociated followed by incubation in papain (Worthington) at 37 °C for 15 min. […] The human microglia treated with Aβ 1–42 and/or zileuton was incubated with N-AS (2.5 μM, 2 h, Sigma-Aldrich, 01912), and were analyzed for the generation and roles of N-AS.

Compound	number of microglial phagocytes normalized to the total number of microglia (APP/PS1 mice)	SphK activity (Fig 3d) (neuron)
CCCCCCCCCCCCC/C=C/[C@@H](O)[C@H](CO)NC(C)=O [N-AS, N-((2S,3R,E)-1,3-Dihydroxyoctadec-4-en-2-yl)acetamide]	0.002363 and 0.002382 and 0.001493 and 0.001786 and 0.001435	–
Ab: Aβ 1–42 (Invitrogen, 03112) used to induce an AD environment in cells	–	1.391 and 1.001 and 1.873 and 1.345 and 1.437 and 1.609
